Assay in all cases: inhibition of tumour cell growth, NCI panel, 48 h
Test [1] concerns MOLT-4 leukemia.
Test [2] concerns COLO 205 colon.
The subject of test [3] is HCT-15 colon.
Test [4] concerns CAKI-1 renal.
Test [5] has as its system ACHN renal.
For test [6], the system named is MDA-N.
Test [7] has as its system SNB-19 CNS.
The subject of test [8] is SF-295 CNS.
Test [9] concerns T-47D breast.
The subject of test [10] is SF-268 CNS.
Test [11] relates to UACC-257 melanoma.
The test system of test [12] is HT29 colon.
Test [13] relates to SW-620 colon.
Test [14] has as its system SK-MEL-5 melanoma.
In test [15] the test system is K-562 leukemia.
Test [16] deals with SK-MEL-2 melanoma.
Test [17] has as its system UACC-62 melanoma.
In test [18] the test system is UO-31 renal.
Test [19] relates to HS 578T breast.

The values that follow come from PubChem BioAssay (NCI).

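How tested: cells in 96-well plates exposed to compound for 48 hours at five concentrations. TGI marks complete inhibition of growth.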

For the compound `CC1(C)O[C@@H](CP(c2ccccc2)c2ccccc2)[C@H](CP(c2ccccc2)c2ccccc2)O1`, the TGI is greater than 100 µM in test [1]; 12.4 µM in test [2]; 44.5 µM in test [3]; greater than 100 µM in test [4]; greater than 100 µM in test [5]; 11.5 µM in test [6]. In addition, the TGI in test [7] came out at 72.2 µM; in test [8], 57.7 µM; in [9], 29.8 µM; in test [10] it was 25.3 µM; in [11], 30.7 µM; in [12], 47.7 µM. For the same compound, the TGI in test [13] stood at 38.3 µM; in test [14], 19.4 µM.

Take `Nc1cnc2c(c1)c(=O)nc1n2CCS1`: the TGI in [1], in [15], in test [2], in test [3], in test [16] and in test [4] was greater than 100 µM throughout. Moreover, the TGI in [5], in test [6], in [17], in test [7], in [8] and in test [10] was greater than 100 µM throughout. For the same compound, the TGI in [11], in [18], in test [12], in test [13] and in test [14] was greater than 100 µM throughout.

In the case of `NC(=O)C(=CN1CC(=O)NC1=S)C(N)=O`, the TGI in test [1], in test [2], in [3], in test [16], in [4] and in test [5] was greater than 100 µM each time. Further, the TGI in test [6], in test [17], in test [7], in test [8], in test [9] and in test [10] was greater than 100 µM in each case. Further, the TGI in [11], in [18], in test [12], in test [13] and in test [14] was greater than 100 µM throughout.

On to `COC(=O)/C(=C\C(=O)c1ccc(Br)cc1)NN=C(c1ccccc1)c1ccccc1`, for which the TGI in [1], in [15], in test [2], in [3], in test [4] and in test [6] was greater than 10 µM in each case. In addition, the TGI in test [17], in test [8], in test [9], in test [10], in test [11] and in test [12] was greater than 10 µM in each case. Besides, the TGI in test [13] and in test [14] was greater than 10 µM in each case.

In the case of `NCCc1ccc2c(c1)C(=O)c1c(O)ccc(O)c1C2=O`, the TGI in test [1] is greater than 100 µM; in test [15], greater than 64.2 µM; in test [2] it was greater than 100 µM; in test [3] it was greater than 100 µM; in test [16], greater than 100 µM; in test [4], greater than 84.3 µM. Also, the TGI in [19] was greater than 100 µM; in [5], greater than 53.6 µM; in [6], greater than 100 µM; in [17], 39.7 µM; in test [7], 29.6 µM; in test [8] it was greater than 74.9 µM. The TGI is 25.3 µM in test [10]; greater than 100 µM in [11]; 25.7 µM in test [18]; greater than 100 µM in [13]; 3.94 µM in [14].

On to `CC1(C)S[C@@H]2[C@H](NC(=O)/C=C/c3ccccc3)C(=O)N2[C@H]1C(=O)O`, for which the TGI in test [1], in test [2], in test [3], in test [16], in test [4] and in test [19] was greater than 100 µM in each case. For the same compound, the TGI in test [5], in test [6], in test [17], in test [7], in test [8] and in [9] was greater than 100 µM throughout. Besides, the TGI in test [10], in [11], in test [18], in test [12], in test [13] and in test [14] was greater than 100 µM each time.

In the case of `CO[C@]12C[C@H](CNC(=O)c3cc(Br)c(Br)[nH]3)O[C@H]1NC(=O)N2`, the TGI in [1], in test [15], in test [2], in test [3], in test [16] and in test [4] was greater than 100 µM in each case. Moreover, the TGI in [19], in test [5], in test [17], in [7], in [8] and in [9] was greater than 100 µM in each case. The TGI in test [10], in test [11], in test [18], in [12], in [13] and in test [14] was greater than 100 µM each time.

As for `COc1ccc2c(c1)CC[C@@H]1[C@@H]2CC[C@]2(C)[C@@H](O)/C(=C/c3ccncc3)C[C@@H]12`, the TGI was 26.4 µM in [1]; 16 µM in [2]; 23.6 µM in test [3]; 31.1 µM in test [16]; 34.2 µM in test [4]; 32 µM in test [19]. For the same compound, the TGI turned out to be 67.2 µM in test [5]; 33.2 µM in test [6]; 29.6 µM in test [17]; 51.8 µM in test [7]; 29.4 µM in [8]; 28.9 µM in [9]. The TGI in test [10] was 28.2 µM; in test [11], 35.6 µM; in test [18], 31.5 µM; in test [12], 15 µM; in test [13] it was 24.8 µM; in test [14] it was 21.4 µM.

Consider `CCCCCn1cnc2c1S(=O)(=O)N(C)C(NC(=O)c1ccccc1)=N2`, for which the TGI in test [1], in [15], in test [2], in [3], in [16] and in [4] was greater than 100 µM throughout. The TGI in [5], in test [17], in [7], in test [8], in test [10] and in test [11] was greater than 100 µM in each case. Moreover, the TGI in test [18], in test [12], in test [13] and in test [14] was greater than 100 µM each time.

On to `Cc1cc(Br)cc(C)c1NC(=O)C(=O)C1C(=O)C(CC2C(=O)c3ccccc3C2=O)C(=O)CC1(C)C` (stereo unspecified), for which the TGI is 74.5 µM in [1]; greater than 100 µM in test [2]; greater than 100 µM in [3]; greater than 100 µM in test [16]; greater than 100 µM in test [4]; greater than 100 µM in test [19]. Also, the TGI in [5], in test [6], in test [17], in [7], in test [8] and in test [10] was greater than 100 µM each time. For the same compound, the TGI in test [11] was greater than 100 µM; in test [18], 92.7 µM; in test [12] it was greater than 100 µM; in test [13] it was greater than 100 µM; in test [14], greater than 100 µM.

In the case of `C[n+]1c(-c2ccc(/C=N\NC(=O)c3ccc(C(=O)N/N=C/c4ccc(-c5cn6ccsc6[n+]5C)cc4)cc3)cc2)cn2ccsc21`, the TGI in [1] was 54.1 µM; in test [15], greater than 100 µM; in [2], 54.3 µM; in test [3], 37.8 µM; in [16] it was 75.6 µM; in [4], 41 µM. The TGI in test [19] was 54.7 µM; in [5], 33.3 µM; in test [6], 78.3 µM; in [17], 47.1 µM; in test [7], 51.9 µM; in [11] it was 54.9 µM. Besides, the TGI worked out at 32.3 µM in test [18], 36 µM in test [12], 40 µM in test [13] and 34 µM in test [14].

As to `CCCCOc1ccc(S(=O)(=O)/N=C(\NN)Nc2ccc(Cl)cc2)cc1`, the TGI in test [1] was greater than 100 µM; in test [15] it was greater than 100 µM; in test [2], 38.5 µM; in test [3], greater than 100 µM; in test [16], greater than 100 µM; in test [4], 48.1 µM. The TGI in test [5] is greater than 100 µM; in test [6] it was greater than 100 µM; in [17], greater than 100 µM; in test [7] it was greater than 100 µM; in test [8], 67.7 µM; in [9] it was 46.2 µM. In addition, the TGI in test [10] is 33 µM; in [11], 68.7 µM; in [18] it was 37.5 µM; in test [12], 48.9 µM; in [13], 82.2 µM; in test [14] it was greater than 100 µM.

Regarding `O=c1cc(-c2ccccc2Cl)[nH]c2cc3c(cc12)OCO3`, the TGI in test [1] is 2.33 µM; in test [2], 0.195 µM; in test [3], 0.355 µM; in test [16], 3.74 µM; in test [4], 39.9 µM; in test [19] it was 4.06 µM. For the same compound, the TGI is greater than 73.9 µM in [5]; 0.0383 µM in test [6]; 15.7 µM in test [17]; greater than 100 µM in test [7]; 3.03 µM in test [8]; greater than 100 µM in test [9]. Besides, the TGI in test [10] is greater than 58.9 µM; in test [11], greater than 72 µM; in [18] it was greater than 20 µM; in test [12] it was 1.46 µM; in test [13], greater than 100 µM; in test [14] it was 2.03 µM.

Consider `Cn1c2c(cc(-c3ccccc3)c1=O)COc1ccccc1-2`, for which the TGI in test [1] was 47.2 µM; in test [15] it was 53.2 µM; in test [2], greater than 100 µM; in test [3] it was greater than 100 µM; in [16] it was 30.4 µM; in [4], greater than 100 µM. Also, the TGI in test [5] was 91.9 µM; in [17], 28.9 µM; in test [7], greater than 100 µM; in test [8], 74.9 µM; in test [10] it was greater than 100 µM; in test [11] it was greater than 100 µM. In addition, the TGI in test [18] was 63.3 µM; in test [12] it was 47.1 µM; in test [13], greater than 100 µM; in [14], 39.9 µM.

With `C1=c2ccccc2=C2C(=C(c3ccccc3)C(c3ccccc3)=NN2c2ccccc2)S1`, the TGI in [1], in test [15], in test [2], in test [3], in [16] and in test [4] was greater than 100 µM in each case. The TGI in test [5], in test [17], in [7], in [8], in test [10] and in test [11] was greater than 100 µM throughout. Besides, the TGI in [18], in test [12], in test [13] and in test [14] was greater than 100 µM throughout.

As to `COC(=O)/C(=N\O)C(C(=O)C=C(C)C)C(=O)C(=O)Nc1ccccc1C` (stereo unspecified), the TGI in test [1], in test [15], in [2], in [3], in [16] and in test [4] was greater than 100 µM each time. Further, the TGI in [5], in test [17], in [7], in [8], in test [10] and in [11] was greater than 100 µM throughout. Also, the TGI in test [18], in [12], in test [13] and in [14] was greater than 100 µM each time.
